Counter-ions that a name gives are not always drawn.
Experiments:
PLK1 kinase domain = biological target: T1, PLK1 kinase domain (Homo sapiens, UniProt P53350); assay: Assay for inhibition of PLK1 (SPA, 33P-ATP, His-tagged PLK kinase domain); format: biochemical; conditions: 2 μM ATP, read-out: Ave pIC50 PLK Enzyme Inhibition (converted)
T1 construct: made in house; host or cells: baculovirus-infected T. ni insect cells
Protocol: I. Assay for Inhibition of PLK1
A. Preparation of 6× N-terminal His-tagged PLK Kinase Domain
6× N-terminal His-tagged PLK kinase domain (amino acids 21-346 preceded by […]) was prepared from baculovirus infected T. ni cells under polyhedrin promoter control. All procedures were performed at 4° C. Cells were lysed in 25 mM HEPES, 200 mM NaCl, 25 mM imidazole; pH 8.0. The homogenate was centrifuged at 14K rpm in a SLA-1500 rotor for 40 min and the supernatant filtered through a 1.2 micron filter. The supernatant was loaded onto a Nickel chelating Sepharose (Amersham Pharmacia) column and washed with 25 mM HEPES, 500 mM NaCl, 25 mM imidazole; pH 8.0. The column was then washed with a 16.6% B step where buffer B is 25 mM HEPES, 500 mM NaCl, 300 mM imidazole; pH 8.0. Protein was eluted using a 10-column volume linear gradient from 16.6% B to 100% B. Fractions containing PLK were determined by SDS-PAGE. PLK was concentrated using a 10 kDa molecular weight cutoff membrane and then loaded onto a Superdex 75 gel filtration (Amersham Pharmacia) column equilibrated in 25 mM HEPES, 1 mM DTT, 500 mM NaCl; pH 8.0. Fractions containing PLK were determined by SDS-PAGE. PLK was pooled, aliquoted and stored at −80° C. Samples were quality controlled using mass spectrometry.
B. Enzyme Activity+/−Inhibitors was Determined as Follows:
Compounds were added to the plate (1 μl in 100% DMSO). DMSO (2% final) and EDTA (55.5 mM final) were used as controls. Reaction Mix A is prepared as follows at 4° C.:
Reaction Mix A (substrate Mix): • 25 mM HEPES, pH 7.2 • 15 mM MgCl2 • 2 μM ATP • 0.1 μCi/well ^33P-γ ATP (10 Ci/mMol) • 2 μM substrate peptide (Biotin-Ahx-[…]) Reaction Mix B is prepared as follows at 4° C.:
Reaction Mix B (Enzyme Mix) • 25 mM HEPES, pH 7.2 • 15 mM MgCl2 • 0.15 mg/ml BSA • 2 mM DTT • 2-10 nM PLK1 kinase domain
Reaction Mix A (20 μl) is added per well. Reaction Mix B (20 μl) is added per well. Incubate 1.5 hrs. at RT. The enzymatic reaction is stopped with 175 μl of SPA/EDTA bead mix (29 mM EDTA, 2.5 mg/ml Streptavidin-coated SPA in Standard Dulbecco's PBS (without Mg^2+ and Ca^2+), 60 μM ATP). Plates are sealed spun (after a 1 hr incubation at RT) at 1,000×g for 7 min or settled overnight, then plates counted in Packard TopCount for 30 seconds/well.

[1] = system: H460 lung tumor cell line; assay: Methylene Blue Growth Inhibition Assay, H460; format: cell-based; conditions: Homo sapiens, NCI-H460, 72 h; H460 cells, 3 days; read-out: MeB Cell Line IC50
Protocol: (§1) II. Methylene Blue Growth Inhibition Assay
(§2) Normal Human foreskin fibroblasts (HFF) and human colon (HCT116, RKO), lung (H460), prostate (PC3), and breast tumor (MCF7) cell lines were cultured in high glucose DMEM (Life Technologies) containing 10% fetal bovine serum (FBS) at 37° C. in a humidified 10% CO2, 90% air incubator. Cells were harvested using trypsin/EDTA, counted using a haemocytometer, and plated in 100 μl of the appropriate media, at the following densities, in a 96-well tissue culture plate (Falcon 3075): HFF 5,000 cells/well, HCT116 3,000 cells/well, RKO 2,500 cells/well, H460 2,000 cells/well, PC3 8,000 cells/well, MCF7 4,000 cells/well. The next day, compounds were diluted in DMEM containing 100 μg/ml gentamicin, at twice the final required concentration, from 10 mM stock solutions in DMSO. 100 μl/well of these dilutions were added to the 100 μl of media currently on the cell plates. Medium containing 0.6% DMSO was added to control wells. Compounds diluted in DMEM were added to all cell lines. The final concentration of DMSO in all wells was 0.3%. Cells were incubated at 37° C., 10% CO2 for 3 days. Medium was removed by aspiration. Cell biomass was estimated by staining cells with 90 μl per well methylene blue (Sigma M9140, 0.5% In 50:50 ethanol:water), and incubation at room temperature for at least 30 minutes. Stain was removed, and the plates rinsed under a gentle stream of water, and air-dried. To release stain from the cells 100 μl of solubilization solution was added (1% N-lauroyl sarcosine, Sodium salt, Sigma L5125, in PBS), and plates were shaken gently for about 30 minutes. Optical density at 620 nm was measured on a microplate reader. Percent inhibition of cell growth was calculated relative to vehicle treated control wells. Concentration of compound that inhibits 50% of cell growth (IC50) was interpolated using nonlinear regression (Levenberg-Marquardt) and the equation, y=Vmax*(1−(x/(K+x)))+Y2, where “K” was equal to the IC50. In Table 1, +=10->30 uM; ++=1-10 uM: +++=<1 uM.

[2] = system: HCT116 colon tumor cell line; assay: Methylene Blue Growth Inhibition Assay, HCT116; format: cell-based; conditions: Homo sapiens, HCT-116, 72 h; HCT116 cells, 3 days; read-out: MeB Cell Line IC50
Protocol: as §1, §2

[3] = system: PC3 prostate tumor cell line; assay: Methylene Blue Growth Inhibition Assay, PC3; format: cell-based; conditions: Homo sapiens, PC-3, 72 h; PC3 cells, 3 days; read-out: MeB Cell Line IC50
Protocol: as §1, §2

[4] = system: RKO colon tumor cell line; assay: Methylene Blue Growth Inhibition Assay, RKO; format: cell-based; conditions: Homo sapiens, 72 h; RKO cells, 3 days; read-out: MeB Cell Line IC50
Protocol: as §1, §2

[5] = system: Normal Human foreskin fibroblasts (HFF); assay: Methylene Blue Growth Inhibition Assay, HFF; format: cell-based; conditions: 72 h, HFF cells, 3 days, read-out: MeB Cell Line IC50
Protocol: as §1, §2

[6] = system: MCF7 breast tumor cell line; assay: Methylene Blue Growth Inhibition Assay, MCF7; format: cell-based; conditions: Homo sapiens, 72 h; MCF7 cells, 3 days; read-out: MeB Cell Line IC50
Protocol: as §1, §2

T1 sequence (P53350 21-346): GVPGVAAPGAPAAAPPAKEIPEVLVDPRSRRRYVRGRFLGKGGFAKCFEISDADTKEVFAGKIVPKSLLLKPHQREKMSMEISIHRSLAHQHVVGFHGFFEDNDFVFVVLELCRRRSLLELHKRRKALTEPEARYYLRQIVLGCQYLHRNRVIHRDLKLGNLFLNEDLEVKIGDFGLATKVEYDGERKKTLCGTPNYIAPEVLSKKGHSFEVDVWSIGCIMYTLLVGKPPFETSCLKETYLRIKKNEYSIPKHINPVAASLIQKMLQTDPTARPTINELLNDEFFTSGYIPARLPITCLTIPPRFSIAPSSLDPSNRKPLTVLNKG

IC50 (PLK1 kinase domain) [nM] | Structure (SMILES) | also measured
< 100 | COc1cc(Nc2ncc(Br)c(Nc3ccccc3C(C)=O)n2)cc(OC)c1OC [Example 11, 1-[2-({5-bromo-2-[(3,4,5-trimethoxyphenyl)amino]pyrimidin-4-yl}amino)phenylethanone hydrochloride] | 
< 100 | CC(=O)Nc1ccc(Nc2ncc([N+](=O)[O-])c(Nc3ccccc3C(=O)OC3CCCCC3)n2)cc1 [Example 21, Cyclohexyl 2-[(2-{[4-(acetylamino)phenyl]amino}-5-nitropyrimidin-4-yl)amino]benzoate hydrochloride] | 
< 100 | COc1cc(Nc2ncc(C#N)c(Nc3ccccc3C(=O)c3ccc(C)cc3)n2)cc(OC)c1OC [Example 39, 4-{[2-(4-Methylbenzoyl)phenyl]amino}-2-[(3,4,5-trimethoxyphenyl)amino]pyrimidine-5-carbonitrile] | IC50 [1]: 1000 to 10000 nM; IC50 [2]: 1000 to 10000 nM; IC50 [3]: 1000 to 10000 nM; IC50 [4]: 1000 to 10000 nM; IC50 [5]: > 10000 nM; IC50 [6]: 1000 to 10000 nM
> 10000 | COc1cc(Nc2nc(Nc3ccc(NC(C)=O)cc3)ncc2Br)cc(OC)c1OC [Example 28, N-[4-(5-Bromo-4-[(3,4,5-trimethoxyphenyl)amino]pyrimidin-2-yl}amino)phenyl]acetamide hydrochloride] | 
< 100 | COc1cc(Nc2ncc([N+](=O)[O-])c(Nc3cccc4ccc(O)cc34)n2)cc(OC)c1OC [Example 37, 8-({5-Nitro-2-[(3,4,5-trimethoxyphenyl)amino]pyrimidin-4-yl}amino)-2-naphthol hydrochloride] | 
100 to 10000 | CC(=O)Nc1ccc(Nc2ncc([N+](=O)[O-])c(Nc3ccccc3C(=O)OCc3ccccc3)n2)cc1 [Example 30, Benzyl 2-[(2-{[4-(acetylamino)phenyl]amino}-5-nitropyrimidin-4-yl)amino]benzoate hydrochloride] | 
< 100 | COC(=O)c1ccccc1Nc1nc(Nc2cc(OC)c(OC)c(OC)c2)ncc1[N+](=O)[O-] [Example 17, Methyl 2-({5-nitro-2-[(3,4,5-trimethoxyphenyl)amino]pyrimidin-4-yl}amino)benzoate hydrochloride] | 
 | COc1cc(Nc2ncc([N+](=O)[O-])c(Nc3ccccc3C(N)=O)n2)cc(OC)c1OC [Example 3, 2-({5-nitro-2-[(3,4,5-trimethoxyphenyl)amino]pyrimidin-4-yl}amino)benzamide hydrochloride] | IC50 [1]: < 1000 nM; IC50 [2]: < 1000 nM; IC50 [3]: 1000 to 10000 nM; IC50 [4]: < 1000 nM; IC50 [5]: 1000 to 10000 nM; IC50 [6]: < 1000 nM
< 100 | CC(=O)Nc1ccc(Nc2ncc([N+](=O)[O-])c(Nc3ccccc3C(=O)OCC(C)C)n2)cc1 [Example 32, Isobutyl 2-[(2-{[4-(acetylamino)phenyl]amino}-5-nitropyrimidin-4-yl)amino]benzoate hydrochloride] | 
< 100 | COC(=O)c1c(C)cccc1Nc1nc(Nc2ccc(NC(C)=O)cc2)ncc1[N+](=O)[O-] [Example 31, Methyl 2-[(2-{[4-(acetylamino)phenyl]amino}-5-nitropyrimidin-4-yl)amino]-6-methylbenzoate hydrochloride] | 
< 100 | CC(=O)Nc1ccc(Nc2ncc(Br)c(Nc3ccccc3N3CCOCC3)n2)cc1 [Example 25, N-[4-({5-Bromo-4-[(2-morpholin-4-ylphenyl)amino]pyrimidin-2-yl}amino)phenyl]acetamide hydrochloride] | 
< 100 | COc1cc(Nc2ncc(C(C)=O)c(Nc3ccccc3C(=O)NC(C)(C)C)n2)cc(OC)c1OC [Example 38, N-(tert-butyl)-2-({5-methyl ketone-2-[(3,4,5-trimethoxyphenyl)amino]pyrimidin-4-yl}amino) benzamide] | 
< 100 | CC(=O)Nc1ccc(Nc2ncc(Br)c(Nc3ccccc3C(C)=O)n2)cc1 [Example 24, N-[4-({4-[(2-Acetylphenyl)amino]-5-bromopyrimidin-2-yl}amino)phenyl]acetamide hydrochloride] | 
< 100 | COc1cc(Nc2ncc([N+](=O)[O-])c(Nc3ccccc3C(=O)O)n2)cc(OC)c1OC [Example 1, 2-({5-nitro-2-[(3,4,5-trimethoxyphenyl)amino]pyrimidin-4-yl}amino)benzoic acid hydrochloride] | 
< 100 | COc1cc(Nc2ncc([N+](=O)[O-])c(Nc3ccccc3C(C)=O)n2)cc(OC)c1OC [Example 35, 1-[2-({5-Nitro-2-[(3,4,5-trimethoxyphenyl)amino]pyrimidin-4-yl}amino)phenyl]ethanone hydrochloride] | 
< 100 | CC(=O)Nc1ccc(Nc2ncc([N+](=O)[O-])c(Nc3cccc(C)c3C(=O)O)n2)cc1 [Example 33, 2-[(2-{[4-(Acetylamino)phenyl]amino}-5-nitropyrimidin-4-yl)amino]-6-methylbenzoic acid hydrochloride] | 
100 to 10000 | COC(=O)c1ccc(C(=O)OC)c(Nc2nc(Nc3ccc(NC(C)=O)cc3)ncc2[N+](=O)[O-])c1 [Example 29, Dimethyl 2-[(2-{[4-(acetylamino)phenyl]amino}-5-nitropyrimidin-4-yl)amino]terephthalate hydrochloride] | 
< 100 | CNC(=O)c1ccccc1Nc1nc(Nc2ccc(NC(C)=O)cc2)ncc1[N+](=O)[O-] [Example 13, 2-[(2-{[4-(acetylamino)phenyl]amino}-5-nitropyrimidin-4-yl)amino]-N-methylbenzamide hydrochloride] | 
100 to 10000 | COc1cc(Nc2ncc(Br)c(Nc3ccccc3N3CCOCC3)n2)cc(OC)c1OC [Example 27, 5-Bromo-N^4-(2-morpholin-4-ylphenyl)-N^2-(3,4,5-trimethoxyphenyl)-pyrimidine-2,4-diamine hydrochloride] | 
< 100 | CC(=O)Nc1ccc(Nc2ncc([N+](=O)[O-])c(Nc3ccccc3C(=O)O)n2)cc1 [Example 23, 2-[(2-{[4-(Acetylamino)phenyl]amino}-5-nitropyrimidin-4-yl)amino]benzoic acid hydrochloride] | 
